Where two headings read alike, the source gives them in different places.
Assays:
P. larvae spores [1] = experiment: Inhibition of P. larvae spore germination, IC50 titration of indole analogs (Example 2); assay type: cell-based, Paenibacillus larvae subsp. pulvifaciens strain ATCC 49843
Protocol: After a 15 minute incubation, the spores were treated with 3 mM L-tyrosine-3 mM uric acid. The germination rate was set to 100% for P. larvae spores germinated in the absence of inhibitor. Germination rates for other conditions were divided by the uninhibited maximum germination rate obtained with 3 mM L-tyrosine-3 mM uric acid, and are reported as percent germination. Percent germination was plotted against the inhibitor concentrations.

P. larvae spores [2] = experiment: Antagonists of P. larvae spore germination, 3 mM (Example 1); assay type: cell-based, Paenibacillus larvae subsp. pulvifaciens strain ATCC 49843; details: 3 mM analog, 15 minutes, then 3 mM L-tyrosine/3 mM uric acid
Protocol: (§1) The decrease in optical density is proportional to spore germination (Powell, J. Gen. Microbiol., 4:330-338, 1950). Changes in light diffraction during spore germination were monitored at 580 nm (OD580) on a Biomate 5 (ThermoElectron Corporation, Waltham, Mass.) or a Tecan Infinite m200 (Tecan group, Männedorf, Switzerland) spectrophotometer. Experiments were carried out in 96-well plates (200 μL/well). In preparation for germination assays, P. larvae spore suspensions were washed three times with water. Spores were then heat activated at 70° C. for 30 minutes. The heat-activated spores were allowed to reach room temperature and transferred to 0.1 M sodium phosphate buffer (pH 7.0) to an approximate OD580 of 0.70. Spores were monitored for auto-germination for 30 minutes. […] Putative germinants were added individually or in combinations to a final concentration of 3 mM. Experiments were performed in triplicate with at least two different spore preparations. After germinant addition, OD580 of the spore suspension was measured every minute for an hour. Relative OD values were derived by dividing each OD580 reading by the initial OD580. Spore germination rates (v) were calculated from the initial linear decrease in relative OD (Akoachere et al., supra). Germination rates were set to 100% for P. larvae spores that had the fastest germination rate in an assay. Germination rates for other conditions were divided by the maximum germination rate for that assay and are reported as percent germination. Standard deviations were calculated from at least six independent measurements and are typically below 10%. Spore germination was confirmed in selected samples by microscope observation of Schaeffer-Fulton stained aliquots (Schaeffer and Fulton, supra).
To test for possible antagonists of P. larvae spore germination, spores were individually supplemented with 3 mM of a purine analog or 3 mM of an amino acid analog. […] If no germination was detected, L-tyrosine and uric acid were added to 3 mM final concentrations, and germination was monitored as described above. […]

P. larvae spores [3] = experiment: Determination of germinants / agonists of P. larvae spore germination (OD580 decrease); assay type: cell-based, Paenibacillus larvae subsp. pulvifaciens strain ATCC 49843; details: 3 mM amino acid or analog plus 3 mM uric acid
Protocol: as §1
To test for possible agonists of P. larvae spore germination, spores were individually supplemented with 3 mM of a purine analog and 3 mM L-tyrosine. Separately, P. larvae spores were incubated with 3 mM of an amino acid analog and 3 mM uric acid. Spore germination was monitored as described above. […]

[4] = tested on: honey bee larvae contacted with P. larvae spores; experiment: Survival of honey bee larvae fed diet with indole analogs and P. larvae spores; assay type: in vivo; details: 0.5 mM in larval diet (wj) plus P. larvae spores; for survival of honey bee larvae vs P. larvae spores alone: 7-day development, p<0.002
Protocol: First instar honey bee larvae were obtained from two colonies headed by naturally mated queens (Honey Bee Genetics, Vacaville Calif.). Queens were trapped on empty frames within a cage constructed with queen excluder. Worker bees can fit through the excluder but the queen cannot exit the cage. The frame was placed within the brood chamber to stimulate egg laying by the queen overnight. Eggs were incubated in the hive for 4 days to allow newly hatched larvae to be fed by nurse bees. First instar honey bee larvae were brought into the laboratory and stored in a 35° C. 85% relative humidity chamber before grafting.
Sterile six well plates with a well volume of 17.0 ml were filled with 2.5 ml of pre-warmed artificial worker jelly. Honey bee larvae were transferred into each well using the thin tongue made of flexible plastic from a Chinese grafting tool. The plastic grafting tool was decontaminated with 70% ethanol throughout usage. Grafting was performed in the sterile environment of a honey bee laboratory, and honey bee larvae were then transferred to a bacterial spore laboratory for control and spore exposure treatments.
Artificial worker jelly was prepared using a lyophilized royal jelly, D-glucose, D-fructose, yeast extract, and autoclaved double distilled water. Ingredients minus lyophilized royal jelly were dissolved in autoclaved double distilled water. Lyophilized royal jelly was added to this sugar-yeast extract solution and mixed thoroughly with a vortex mixer. Artificial diet was prepared an hour prior to use for larval rearing. To reduce the development of worker-queen hybrids because of nutrition, the composition and amounts of artificial worker jelly were controlled in every larval stage.
Honey bee larvae were incubated in an air tight plastic container placed inside an incubator. The desired relative humidity (95%) and temperature (35° C.) was verified with an iButton data logger (Maxim Integrated; San Jose, Calif.). The appropriate relative humidity was obtained by placing a solution of 20% glycerol by weight. The plastic containers were was decontaminated throughout usage with detergent, 70% ethanol, and treated with an ultraviolet lamp overnight.
Feeding of diets was performed daily in different amounts according to Table 2. The amount of diet consumed by larvae was assumed based on published literature. A micropipette was used to place a food drop next to the mouth of the larvae. Drowning was avoided by maintaining the appropriate humidity and water content of diet. Forty first and second instar larvae were placed into one well of a six well plate. Third instar larvae were transferred individually to 48 well plates filled with fresh food.
Larval survival was determined daily by observing signs of respiration, disease symptoms, and other abnormalities with a stereo microscope. The number of dead larvae was recorded, and surviving larvae were fed fresh food. The start of pupation was indicated by the appearance of uric acid crystals and light yellow excretions in the remaining food.
The larval survival data was analyzed using the LogRank test in SigmaPlot.

P. larvae spores [5] = experiment: Inhibition of P. larvae spore germination by indole and phenol, IC50 titration (Example 1); assay type: cell-based, Paenibacillus larvae subsp. pulvifaciens strain ATCC 49843; details: for IC50: Paenibacillus larvae
Protocol: as §1, with “Standard deviations were calculated from at least six independent measurements and are typically below 10%.” left out
After 15 minutes of incubation, spores were treated with 3 mM L-tyrosine/3 mM uric acid. The germination rate was set to 100% for P. larvae spores germinated in the absence of inhibitor. Germination rates for other conditions were divided by the uninhibited maximum germination rate obtained with 3 mM L-tyrosine/3 mM uric acid, and are reported as percent germination. Percent germination was plotted against inhibitor concentrations. The resulting sigmoidal curves were fitted using the four parameter logistic function in SigmaPlot v.9 to calculate IC50 values.

[6] = tested on: P. larvae subsp. larvae spores; assay type: cell-based, Paenibacillus larvae subsp. larvae
Source text: Chemicals were purchased from Sigma Aldrich Corporation (St. Louis, Mo.). Dehydrated culture media was purchased from BD Difco (Franklin Lakes, N.J.). Paenibacillus larvae subsp. pulvifaciens strain ATCC 49843 was purchased from the […] (ATCC). Environmental American Foulbrood scales (the remains of infected larvae collected from infected hives) were kindly donated by Dr. Jay D. Evans at the USDA Bee Research Facility in Beltsville, Md.
To test the generality of P. larvae spore response, spores were prepared from P. larvae subsp. pulvifaciens strain ATCC 49843, and also from an environmental AFB sample.

P. larvae spores [7] = experiment: Activation of P. larvae spore germination by L-tyrosine and uric acid (titration); assay type: cell-based, Paenibacillus larvae subsp. pulvifaciens strain ATCC 49843; details: Paenibacillus larvae
Protocol: The decrease in optical density is proportional to spore germination (Powell, J. Gen. Microbiol., 4:330-338, 1950). Changes in light diffraction during spore germination were monitored at 580 nm (OD580) on a Biomate 5 (ThermoElectron Corporation, Waltham, Mass.) or a Tecan Infinite m200 (Tecan group, Männedorf, Switzerland) spectrophotometer. Experiments were carried out in 96-well plates (200 μL/well). In preparation for germination assays, P. larvae spore suspensions were washed three times with water. Spores were then heat activated at 70° C. for 30 minutes. The heat-activated spores were allowed to reach room temperature and transferred to 0.1 M sodium phosphate buffer (pH 7.0) to an approximate OD580 of 0.70. Spores were monitored for auto-germination for 30 minutes. […] After germinant addition, OD580 of the spore suspension was measured every minute for an hour. Relative OD values were derived by dividing each OD580 reading by the initial OD580. Spore germination rates (v) were calculated from the initial linear decrease in relative OD (Akoachere et al., supra). […] Standard deviations were calculated from at least six independent measurements and are typically below 10%. […]
P. larvae spore germination was tested with different combinations of L-tyrosine and uric acid. […] Germination rates were determined as above. […]

[8] = Paenibacillus larvae, Table 2, saturating uric acid/L-tyrosine concentrations, read-out: IC50
[9] = environmental P. larvae subsp. larvae compared with strain ATCC 49843
[10] = 15 minutes incubation, then 3 mM L-tyrosine/3 mM uric acid, read-out: IC50 inhibition of P. larvae spore germination
[11] = Table 1, 15 minutes prior to addition of 3 mM uric acid and 3 mM L-tyrosine, standard deviations in parentheses, N/A = no activity under the conditions tested, read-out: IC50

Molecule Oc1ccc2[nH]ccc2c1 [5-hydroxyindole] has an IC50 (P. larvae spores [1]; [8]) of 550 ± 170 µM.

N[C@H](Cc1ccc(O)cc1)C(=O)O [D-tyrosine, reference compound] was tested, and the “inhibition of uric acid/L-tyrosine-induced germination” value (P. larvae spores [2]) was “did not inhibit” and the “germination response as co-germinant with uric acid” value (P. larvae spores [3]) was “none of the compounds tested was able to activate”.

For O=[N+]([O-])c1ccc2[nH]ccc2c1 [5-nitroindole], the IC50 (P. larvae spores [1]; [8]) was 70 ± 10 µM and the “survival of honey bee larvae vs P. larvae spores alone” value (“survival … vs P. larvae spores alone” for short) [4] was “increased survival”.

With c1ccc2[nH]ccc2c1 [Indole] the “inhibition of uric acid/L-tyrosine-induced germination” value (P. larvae spores [2]) was “able to inhibit”, the IC50 (P. larvae spores [5]) was 330 µM and the IC50 (P. larvae spores [5]; read-out: IC50 inhibition of P. larvae spore germination) was 370 µM. For the same molecule, the IC50 (P. larvae spores [1]; Paenibacillus larvae) was 370 ± 20 µM, the IC50 (P. larvae spores [1]; Paenibacillus larvae, read-out: IC50 inhibition of P. larvae spore germination (previously shown)) was 400 µM and the “inhibition of germination, both P. larvae sub-species” value [6, 9] was “similarly inhibited”.

Cn1ccc2ccccc21 [1-N-methylindole] was tested, and the “IC50 inhibition of P. larvae spore germination” value (P. larvae spores [5]; 15 minutes incubation, then 3 mM L-tyrosine/3 mM uric acid) was “neither activated nor inhibited”.

Fc1ccc2cc[nH]c2c1 [6-fluoroindole] was tested, and the IC50 (P. larvae spores [1]; [8]) was 120 ± 10 µM.

With O=c1[nH]c(=O)c2[nH]c(=O)[nH]c2[nH]1 [uric acid, reference compound] the EC50 (P. larvae spores [7]; titration of uric acid at saturating L-tyrosine concentration (3 mM), read-out: EC50 for uric acid activation of P. larvae spore germination) was 200 µM and the “germination response to L-tyrosine and uric acid, both P. larvae sub-species” value [6, 9] was “responded identically”.

Cc1c[nH]c2ccccc12 [3-methylindole] showed an IC50 (P. larvae spores [5]; [10]) of 380 µM and an IC50 (P. larvae spores [5]; [11]) of 380 µM.

With N#Cc1cccc2[nH]ccc12 [4-cyanoindole] the IC50 (P. larvae spores [1]; [8]) was 200 ± 20 µM.

Fc1ccc2[nH]ccc2c1 [5-fluoroindole] gave an IC50 (P. larvae spores [1]; [8]) of 120 ± 20 µM.

With N[C@@H](Cc1ccc(O)cc1)C(=O)O [L-tyrosine] the EC50 (P. larvae spores [7]; read-out: EC50 for L-tyrosine activation of P. larvae spore germination) was 1200 µM, the “germination response as co-germinant with uric acid” value (P. larvae spores [3]) was “strong germination response” and the “germination response to L-tyrosine and uric acid, both P. larvae sub-species” value [6, 9] was “responded identically”.

Clc1ccc2cc[nH]c2c1 [6-chloroindole] was tested, and the IC50 (P. larvae spores [1]; [8]) was 20 µM and the “survival … vs P. larvae spores alone” value [4] was “increased survival”.

With Brc1ccc2[nH]ccc2c1 [5-bromindole] the IC50 (P. larvae spores [1]; Table 2, saturating uric acid/L-tyrosine concentrations, read-out: IC50) was 60 ± 70 µM, the “ranking of effect on larval survival among analogs” value [4] was “greatest effect” and the “survival … vs P. larvae spores alone” value [4] was “increased survival”.

With Cc1cccc2cc[nH]c12 [7-methylindole] the IC50 (P. larvae spores [5]; [10]) was 280 µM and the IC50 (P. larvae spores [5]; [11]) was 280 µM.

Work on Cc1ccc2[nH]ccc2c1 [5-methylindole] yielded an IC50 (P. larvae spores [5]; [10]) of 370 µM and an IC50 (P. larvae spores [5]; [11]) of 370 µM.

With Brc1ccc2cc[nH]c2c1 [6-bromoindole] the IC50 (P. larvae spores [1]; [8]) was 60 ± 60 µM and the “survival … vs P. larvae spores alone” value [4] was “increased survival”.

With Oc1ccccc1 [Phenol] the “inhibition of uric acid/L-tyrosine-induced germination” value (P. larvae spores [2]) was “able to inhibit”, the “germination response as co-germinant with uric acid” value (P. larvae spores [3]) was “none of the compounds tested was able to activate” and the “inhibition of germination, both P. larvae sub-species” value [6] was “similarly inhibited”.

With N#Cc1ccc2cc[nH]c2c1 [6-cyanoindole] the IC50 (P. larvae spores [1]; [8]) was 110 ± 10 µM.
